Test results taken from article PMC6073568, “Efficient Lead Finding, Activity Enhancement and Preliminary Selectivity Control of Nuclear Receptor Ligands Bearing a Phenanthridinone Skeleton” (International Journal of Molecular Sciences, 2018).

Columns and labels:
[1] = target: T1, LXRβ (Homo sapiens, UniProt P55055); experiment: LXRβ reporter gene assay in HEK293; format: cell-based; details: read-out: LXRβ antagonistic activity (IC50)
T1 construct: CMX-GAL4N-hLXRβ-LBD; expressed in transfected cells; host or cells: HEK293
T1 sequence (P55055 222-460 limits assumed): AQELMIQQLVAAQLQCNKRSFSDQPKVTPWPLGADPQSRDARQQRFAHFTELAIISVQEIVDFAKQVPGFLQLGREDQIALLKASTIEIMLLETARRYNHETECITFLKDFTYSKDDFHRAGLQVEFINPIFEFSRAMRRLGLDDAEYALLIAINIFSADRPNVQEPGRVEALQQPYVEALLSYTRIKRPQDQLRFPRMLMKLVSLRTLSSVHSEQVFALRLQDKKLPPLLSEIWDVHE

[2] = target: T2, AR (Homo sapiens, UniProt P10275); experiment: AR reporter gene assay in HEK293; format: cell-based; details: reporter gene assay, HEK293; agonist dihydrotestosterone 0.3 nM; read-out: AR antagonistic activity (IC50), AR reporter gene
T2 sequence (P10275 1-920): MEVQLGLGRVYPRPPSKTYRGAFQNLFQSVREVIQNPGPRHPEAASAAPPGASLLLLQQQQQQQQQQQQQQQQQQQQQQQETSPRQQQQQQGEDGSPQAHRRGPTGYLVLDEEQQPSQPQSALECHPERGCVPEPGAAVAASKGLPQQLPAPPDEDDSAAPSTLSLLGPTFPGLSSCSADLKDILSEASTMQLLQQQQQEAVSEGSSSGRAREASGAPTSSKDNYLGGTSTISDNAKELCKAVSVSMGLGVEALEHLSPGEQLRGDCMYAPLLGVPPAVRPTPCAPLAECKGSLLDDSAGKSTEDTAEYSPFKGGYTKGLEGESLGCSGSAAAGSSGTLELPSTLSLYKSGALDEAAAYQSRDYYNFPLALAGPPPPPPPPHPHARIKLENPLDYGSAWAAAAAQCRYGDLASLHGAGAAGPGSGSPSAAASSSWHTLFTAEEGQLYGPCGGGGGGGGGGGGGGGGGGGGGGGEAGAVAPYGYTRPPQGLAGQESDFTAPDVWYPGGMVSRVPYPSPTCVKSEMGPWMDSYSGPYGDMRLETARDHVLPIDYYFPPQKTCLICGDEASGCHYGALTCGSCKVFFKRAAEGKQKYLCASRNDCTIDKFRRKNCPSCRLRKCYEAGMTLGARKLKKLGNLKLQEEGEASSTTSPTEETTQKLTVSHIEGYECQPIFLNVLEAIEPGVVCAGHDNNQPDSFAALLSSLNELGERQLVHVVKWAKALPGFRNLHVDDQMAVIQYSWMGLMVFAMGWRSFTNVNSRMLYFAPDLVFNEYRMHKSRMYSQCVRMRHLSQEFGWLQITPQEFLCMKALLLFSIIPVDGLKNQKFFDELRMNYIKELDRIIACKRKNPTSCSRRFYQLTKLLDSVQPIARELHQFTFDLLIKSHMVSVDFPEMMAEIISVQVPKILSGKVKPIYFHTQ

[3] = target: T3, GR (Homo sapiens, UniProt P04150); experiment: GR reporter gene assay in HEK293; format: cell-based; details: reporter gene assay, HEK293; agonist dexamethasone 1 nM; read-out: GR antagonistic activity (IC50)
T3 construct: expressed in transfected cells; host or cells: HEK293
T3 sequence (P04150 1-777): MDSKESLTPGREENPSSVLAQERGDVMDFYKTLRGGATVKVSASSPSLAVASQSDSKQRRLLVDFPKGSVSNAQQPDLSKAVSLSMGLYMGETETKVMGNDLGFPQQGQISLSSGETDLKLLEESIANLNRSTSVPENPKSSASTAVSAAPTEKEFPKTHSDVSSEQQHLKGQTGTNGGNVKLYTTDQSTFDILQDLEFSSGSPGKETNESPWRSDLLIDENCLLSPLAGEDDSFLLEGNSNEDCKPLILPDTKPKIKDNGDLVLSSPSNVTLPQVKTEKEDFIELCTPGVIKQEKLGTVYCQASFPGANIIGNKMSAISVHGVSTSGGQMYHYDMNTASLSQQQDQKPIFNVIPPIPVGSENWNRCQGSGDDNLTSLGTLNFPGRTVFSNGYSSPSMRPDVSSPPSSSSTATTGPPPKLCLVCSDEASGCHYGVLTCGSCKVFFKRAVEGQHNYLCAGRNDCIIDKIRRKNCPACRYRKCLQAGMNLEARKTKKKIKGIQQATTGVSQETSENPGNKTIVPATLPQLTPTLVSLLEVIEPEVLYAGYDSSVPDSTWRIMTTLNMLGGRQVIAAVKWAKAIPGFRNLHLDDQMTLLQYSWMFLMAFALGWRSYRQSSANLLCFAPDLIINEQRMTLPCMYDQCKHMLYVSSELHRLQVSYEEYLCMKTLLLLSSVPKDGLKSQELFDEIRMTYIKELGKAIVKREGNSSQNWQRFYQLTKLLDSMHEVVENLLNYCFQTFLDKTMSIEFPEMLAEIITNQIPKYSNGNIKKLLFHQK

[4] = target: T4, PR (Homo sapiens, UniProt P06401); details: alkaline phosphatase, T47D cells, progesterone 1 nM; read-out: PR antagonistic activity (IC50); cited from earlier work
T4 sequence (P06401 1-933): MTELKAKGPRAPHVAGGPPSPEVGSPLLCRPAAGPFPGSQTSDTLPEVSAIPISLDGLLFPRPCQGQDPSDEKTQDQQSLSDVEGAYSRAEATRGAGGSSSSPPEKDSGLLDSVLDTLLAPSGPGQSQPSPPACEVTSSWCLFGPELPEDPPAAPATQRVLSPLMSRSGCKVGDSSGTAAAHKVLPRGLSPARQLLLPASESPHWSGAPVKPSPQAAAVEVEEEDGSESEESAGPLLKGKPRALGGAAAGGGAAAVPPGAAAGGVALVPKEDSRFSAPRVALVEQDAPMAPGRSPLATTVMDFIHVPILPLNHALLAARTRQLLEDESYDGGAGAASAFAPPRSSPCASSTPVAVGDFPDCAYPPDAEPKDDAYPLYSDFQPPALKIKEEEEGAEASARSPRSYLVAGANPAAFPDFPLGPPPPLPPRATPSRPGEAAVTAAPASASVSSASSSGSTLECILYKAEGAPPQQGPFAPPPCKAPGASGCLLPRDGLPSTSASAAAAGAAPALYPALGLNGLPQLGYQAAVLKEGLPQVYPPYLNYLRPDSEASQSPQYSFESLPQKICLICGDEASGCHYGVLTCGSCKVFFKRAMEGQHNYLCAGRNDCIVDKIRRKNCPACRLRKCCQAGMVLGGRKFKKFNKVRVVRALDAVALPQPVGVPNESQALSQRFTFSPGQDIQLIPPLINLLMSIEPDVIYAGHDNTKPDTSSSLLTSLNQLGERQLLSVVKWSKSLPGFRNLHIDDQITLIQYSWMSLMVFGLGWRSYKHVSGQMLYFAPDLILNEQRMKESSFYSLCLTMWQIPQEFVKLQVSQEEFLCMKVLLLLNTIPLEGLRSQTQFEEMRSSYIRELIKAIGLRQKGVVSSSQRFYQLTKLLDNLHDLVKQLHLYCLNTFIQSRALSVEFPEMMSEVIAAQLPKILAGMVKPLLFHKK

[5] = target: T5, LXRα (Homo sapiens, UniProt Q13133); experiment: LXRα reporter gene assay in HEK293; format: cell-based; details: read-out: LXRα antagonistic activity (IC50)
T5 construct: CMX-GAL4N-hLXRα-LBD; expressed in transfected cells; host or cells: HEK293
T5 sequence (Q13133 209-447 limits assumed): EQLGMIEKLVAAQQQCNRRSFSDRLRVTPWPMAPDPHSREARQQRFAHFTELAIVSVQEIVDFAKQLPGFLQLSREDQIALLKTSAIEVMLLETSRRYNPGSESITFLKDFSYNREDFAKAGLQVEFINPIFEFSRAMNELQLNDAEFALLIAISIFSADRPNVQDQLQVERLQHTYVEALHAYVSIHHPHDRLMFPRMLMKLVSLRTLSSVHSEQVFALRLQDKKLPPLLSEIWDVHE

[6] = target: T6, RORβ (Homo sapiens, UniProt Q92753); details: reporter gene assay, HEK293; read-out: RORβ inverse agonistic activity (IC50); cited from earlier work
T6 construct: expressed in transfected cells; host or cells: HEK293
T6 sequence (Q92753 1-459 isoform Q92753-1): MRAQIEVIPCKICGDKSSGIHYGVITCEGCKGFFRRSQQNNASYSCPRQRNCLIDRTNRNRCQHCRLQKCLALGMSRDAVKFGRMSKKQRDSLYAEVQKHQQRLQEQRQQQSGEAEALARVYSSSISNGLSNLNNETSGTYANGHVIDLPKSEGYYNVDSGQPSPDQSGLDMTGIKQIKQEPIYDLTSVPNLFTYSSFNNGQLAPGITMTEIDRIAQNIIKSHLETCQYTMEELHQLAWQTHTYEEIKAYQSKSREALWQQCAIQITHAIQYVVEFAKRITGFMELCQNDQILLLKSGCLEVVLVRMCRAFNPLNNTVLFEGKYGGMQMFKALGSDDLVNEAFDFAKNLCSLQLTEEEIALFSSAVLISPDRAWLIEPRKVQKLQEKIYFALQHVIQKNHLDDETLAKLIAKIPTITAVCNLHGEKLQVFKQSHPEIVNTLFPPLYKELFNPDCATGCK

[7] = target: T7, RORγ (Homo sapiens, UniProt P51449); details: reporter gene assay, HEK293; read-out: RORγ inverse agonistic activity (IC50); cited from earlier work
T7 construct: expressed in transfected cells; host or cells: HEK293
T7 sequence (P51449 1-518): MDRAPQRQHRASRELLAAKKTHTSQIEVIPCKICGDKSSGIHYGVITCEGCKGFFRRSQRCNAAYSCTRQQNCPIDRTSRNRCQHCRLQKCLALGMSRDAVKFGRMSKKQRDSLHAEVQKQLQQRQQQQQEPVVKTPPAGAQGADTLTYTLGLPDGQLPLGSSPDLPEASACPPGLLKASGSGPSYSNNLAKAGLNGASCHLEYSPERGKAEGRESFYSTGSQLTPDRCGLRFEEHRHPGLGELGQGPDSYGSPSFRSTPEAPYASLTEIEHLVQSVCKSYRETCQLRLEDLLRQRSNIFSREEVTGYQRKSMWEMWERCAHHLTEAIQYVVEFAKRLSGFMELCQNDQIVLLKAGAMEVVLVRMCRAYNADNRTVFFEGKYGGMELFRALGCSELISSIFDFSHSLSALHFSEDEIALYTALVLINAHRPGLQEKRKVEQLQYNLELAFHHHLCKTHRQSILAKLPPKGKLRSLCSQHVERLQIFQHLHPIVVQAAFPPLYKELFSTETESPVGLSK

[8] = target: T8, RORα (Homo sapiens, UniProt P35398); details: reporter gene assay, HEK293; read-out: RORα inverse agonistic activity (IC50); cited from earlier work
T8 construct: expressed in transfected cells; host or cells: HEK293
T8 sequence (P35398 1-523): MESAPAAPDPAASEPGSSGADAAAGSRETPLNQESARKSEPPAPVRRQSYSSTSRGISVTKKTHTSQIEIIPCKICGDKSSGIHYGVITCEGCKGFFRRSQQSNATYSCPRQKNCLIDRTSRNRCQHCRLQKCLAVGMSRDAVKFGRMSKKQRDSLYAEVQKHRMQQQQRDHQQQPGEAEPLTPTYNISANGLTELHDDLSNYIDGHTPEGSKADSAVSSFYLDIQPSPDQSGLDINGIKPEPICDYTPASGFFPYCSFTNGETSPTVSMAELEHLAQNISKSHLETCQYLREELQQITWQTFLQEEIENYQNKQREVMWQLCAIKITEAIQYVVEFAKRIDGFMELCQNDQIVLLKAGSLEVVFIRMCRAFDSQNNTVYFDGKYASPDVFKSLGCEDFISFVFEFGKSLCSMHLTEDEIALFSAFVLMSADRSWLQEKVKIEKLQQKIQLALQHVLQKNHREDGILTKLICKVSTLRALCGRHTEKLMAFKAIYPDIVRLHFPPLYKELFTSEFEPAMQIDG

| IC50 [1] | IC50 [2] | IC50 [3] | IC50 [5] | SMILES | IC50 [4] | IC50 [6] | IC50 [7] | IC50 [8] |
| --- | --- | --- | --- | --- | --- | --- | --- | --- |
| 0.88 µM | 5.2 µM | 10 µM | 9.2 µM | CCCCn1c(=O)c2ccc(Cl)cc2c2cc(C(O)(C(F)(F)F)C(F)(F)F)ccc21 [Compound 2] | 4.3 µM | – | – | – |
| – | 0.3 µM | – | – | Cc1cc(C(O)(C(F)(F)F)C(F)(F)F)cc2c3ccc(F)cc3c(=O)n(C)c12 [Compound 3] | – | > 20 µM | > 20 µM | > 20 µM |
| 16 µM | 11 µM | > 20 µM | 17 µM | CCCCn1c(=O)c2ccccc2c2cc(C)ccc21 [Compound 8] | – | – | 17 µM | 18 µM |
| 16 µM | 19 µM | 19 µM | 17 µM | CCCCn1c(=O)c2ccccc2c2cc(CC)ccc21 [Compound 9] | – | – | – | – |
| 6.9 µM | 5.6 µM | 17 µM | 12 µM | CCCn1c(=O)c2ccccc2c2cc(C(O)(C(F)(F)F)C(F)(F)F)ccc21 [Compound 15] | – | – | – | 11 µM |
| 10 µM | 4 µM | > 20 µM | 16 µM | CCCCCCn1c(=O)c2ccccc2c2cc(C(O)(C(F)(F)F)C(F)(F)F)ccc21 [Compound 16] | – | – | – | – |
| 3 µM | 6.4 µM | 16 µM | 12 µM | CCCCn1c(=O)c2ccc(C)cc2c2cc(C(O)(C(F)(F)F)C(F)(F)F)ccc21 [Compound 36] | 3.7 µM | – | – | – |
| – | > 3 µM | > 20 µM | 7 µM | CCCCn1c(=O)c2ccc(O)cc2c2cc(C(O)(C(F)(F)F)C(F)(F)F)ccc21 [Compound 38] | 5.1 µM | – | – | – |
| – | – | – | – | Cc1cc(C(O)(C(F)(F)F)C(F)(F)F)cc2c1[nH]c(=O)c1ccccc12 [Compound 40] | – | > 20 µM | > 20 µM | > 20 µM |
| > 20 µM | 1.7 µM | – | – | Cc1cc(C(O)(C(F)(F)F)C(F)(F)F)cc2c1[nH]c(=O)c1cc(F)ccc12 [Compound 44] | – | > 20 µM | > 20 µM | > 20 µM |
